In patent EP0230023B1, “Pharmaceutical compositions for the enhancement of wound healing” (MARION MERRELL DOW INC., priority 1985, dated 1987):

What was measured:
fibroblasts = experiment: Cell migration assay (Boyden chamber); type: cell-based; design: Chemokinesis: scale not given here; conditions: score, Boyden chamber, scale not defined; potassium salts
Experimental: Stimulation of directed movement of fibroblasts was assayed as described by Banda M.J., Knighton D.R., Hunt T.K., Werb A., Isolation of a nonmitogenic angiogenesis factor from wound fluid, Proc. Natl. Acad. Sci. 79:7773-7777, 1982. Briefly, solutions of sucrose octasulfate in PBS in concentrations resulting in final concentrations ranging from 10 -² to 10 -⁷ g/ml diluted to a final volume of 300 µℓ in DMEM supplemented with 10 percent rabbit platelet-poor plasma serum were placed in the bottom of Boyden blind-well chambers. Polylysine-coated, 5 µ -pore diameter, polycarbonate filters (Nucleopore) were placed over the test solution and 1.75-3.0 x 10⁶ fibroblasts suspended in DMEM added to the top compartment. The chambers were incubated for two and a half hours at 37 °C,
At the end of incubation of the top filter was fixed, stained and evaluated by counting the number of cells that had migrated to the bottom side of the filter. For each experiment five random fields per filter and at least 15 filters per each concentration of sucrose octasulfate were conducted. […]

granulation tissue = experiment: Subcutaneous Ivalon sponge implantation, histological analysis of granulation tissue formation; type: in vivo, Sprague-Dawley rats; conditions: for Sponge: score on the 0-4 scale, tested in a similar manner to collagen/sucrose octasulfate, potassium salts
Experimental: By means of subcutaneous implantation of Ivalon sponges the phase of granulation tissue formation in the repair process can be evaluated. Following a vigorous cleanup procedure the sponge material evokes only minimal inflammatory response. Sterile sponges prepared as set forth in Example 12 were injected with a 50 µl suspension of collagen/sucrose octasulfate suspension prepared as in Example 12. […] The sponges were surgically implanted into 350-500 g, male Sprague-Dawley rats. Before the implantation procedure three rats were anesthetized and their dorsal surfaces shaved and wiped with Predodyne (West Chemical Products, Lynbrook, N.Y.). Six 6 mm incisions were cut in groups of two (one on each side of the vertebral column rostrally, centrally and caudally), spaced equi-distant from each other between the pectoral and pelvic girdles on the dorsal surface. At each incision a pocket was made between the panniculus carnosus and the dermis and two sponges inserted into it, one rostrally and the other caudally; a total of 12 sponges were thus implanted in each animal. The position of each test preparation was alternated between the rostral, central and caudal positions to control the variation due to anatomical location. The incisions were closed with 11-mm Michel wound clips (Propper, Long Island City, N.Y.). Seven days following implantation the animals were sacrificed and the sponges surgically removed with their adhered connective tissue capsules. Controls, sponges injected with either PBS or collagen only were treated in a similar manner. In all, approximately 120 sponges per group were used in the study and randomly selected for biochemical and histologic analysis. The sponges were fixed in formalin and embedded in either plastic or Paraplast following dehydration. Sections were stained with hemotocylin and eosin, trichrome, silver or PAS. […] Mesenchymal cell infiltration was also scored on a predetermined scale from 0-4. […] Although the whole sponge area was used for analysis we noted that the most striking differences between the various treatments were evident in the center of the sponge. Therefore, the histologic appearance of the central zone was selected for presentation.

rabbit corneas = experiment: Rabbit cornea assay for angiogenesis; type: in vivo; conditions: grade on scale 0-4+ in rabbit cornea; potassium salts
Experimental: This may offer an explanation for the dense vascular bed that characterized the granulation tissue in the in-vivo experiments. Sucrose octasulate at concentrations of 0.1 to 100 µg/ml was encapsulated in Hydron and implanted in rabbit corneas. The method used was that described in Surgery 96:48-54, 1984. The […] solution (sucrose octasulfate or PBS) was mixed with an equal volume of Hydron and allowed to polymerize under reduced pressure. […] Eyes were evaluated at days 1 through 14 post-implantation for gross inflammation and, as described by Hunt, et al, in Surgery 96:48-54, 1984, for angiogenesis. Corneal neovascularization was graded on a scale of 0-4+ (integers only being assigned). Zero denotes a normal eye with no ingrowth on limbal vessels into the corneal stroma; 1+, up to 1 mm of capillary ingrowth in a localized arc adjacent to the injection site; 2+, […] ingrowth; 3+, 2-3 mm ingrowth; and 4+, 3 mm or greater ingrowth in a wide arc along the limbal edge toward the injection site. […] To ascertain that the observed angiogenesis was not secondary to an inflammatory process some eyes with a positive response were removed and stained with H&E and a nonspecific esterase stain as early as two days after implantation.

Compound | Chemokinesis (fibroblasts) | Sponge (granulation tissue) | Angiogenesis (rabbit corneas) | histologic response in sponge (granulation tissue; similar tests with sucralfate)
O=S(=O)([O-])OC[C@H]1O[C@@H](O[C@H]2[C@H](OS(=O)(=O)[O-])[C@@H](OS(=O)(=O)[O-])[C@H](OS(=O)(=O)[O-])O[C@@H]2COS(=O)(=O)[O-])[C@H](OS(=O)(=O)[O-])[C@@H](OS(=O)(=O)[O-])[C@H]1OS(=O)(=O)[O-].[K+].[K+].[K+].[K+].[K+].[K+].[K+].[K+] [Beta-Lactose Octasulfate, potassium β -lactose octasulfate] | 3.0 | 3.0 | 3.0 | –
O=C[C@H](OS(=O)(=O)[O-])[C@@H](OS(=O)(=O)[O-])[C@H](OS(=O)(=O)[O-])[C@@H](COS(=O)(=O)[O-])OS(=O)(=O)[O-].[K+].[K+].[K+].[K+].[K+] [Glucose Pentasulfate, potassium glucose pentasulfate] | 3.0 | 2.5 | 2.0 | –
O=S(=O)([O-])OC[C@H]1O[C@H](O[C@H]2O[C@H](COS(=O)(=O)[O-])[C@@H](OS(=O)(=O)[O-])[C@H](OS(=O)(=O)[O-])[C@H]2OS(=O)(=O)[O-])[C@H](OS(=O)(=O)[O-])[C@@H](OS(=O)(=O)[O-])[C@@H]1OS(=O)(=O)[O-].[K+].[K+].[K+].[K+].[K+].[K+].[K+].[K+] [Trehalose Octasulfate, potassium trehalose octasulfate] | 2.0 | 3.0 | 3.0 | –
potassium melezitose persulfate [Melezitose Undecasulfate] | 1 | 1 | 1 | –
potassium stachyose persulfate [Stachyose Tetradecasulfate] | 2.0 | 2.5 | 2.5 | –
O=C[C@H](O)[C@@H](O)[C@H](O)[C@H](O)COS(=O)(=O)[O-].[K+] [Glucose-6-Sulfate, potassium D-glucose-6-sulfate, reference compound] | 1 | 1 | 1 | –
O=S(=O)(O)OC[C@H]1O[C@@H](OS(=O)(=O)O)[C@H](OS(=O)(=O)O)[C@@H](OS(=O)(=O)O)[C@@H]1O[C@H]1O[C@H](COS(=O)(=O)O)[C@@H](OS(=O)(=O)O)[C@H](OS(=O)(=O)O)[C@H]1OS(=O)(=O)O [Maltose Octasulfate, potassium maltose octasulfate] | 3.0 | 3.0 | 3.0 | –
sucralfate [reference compound] | – | – | – | strong inflammatory response with no neovascularization or fibroblast migration
potassium sucrose trisulfate | 3.0 | 2.5 | 2.0 | –
O=C[C@@H](OS(=O)(=O)[O-])[C@@H](OS(=O)(=O)[O-])[C@H](OS(=O)(=O)[O-])[C@@H](COS(=O)(=O)[O-])OS(=O)(=O)[O-].[K+].[K+].[K+].[K+].[K+] [Mannose Pentasulfate, potassium mannose pentasulfate] | 4.0 | 3.0 | 3.0 | –
